One series relates to Serratia marcescens L-65. The series can be described thus: Antibacterial activity against clinically isolated β-lactamase (cephalosporinase) producing strains (MIC). Type of series: cell-based. Conditions: Serratia marcescens, L65, Serratia marcescens L-65; cephalosporinase producing strain, SDA, 18 to 20 hours; read-out: MIC. Put shortly: (§1)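 Strains grown 18 h in STB; diluted to 10⁶ cells/mL; spot-inoculated on sensitivity disk agar-N with test compound; incubated 18–20 h; MIC read as minimum concentration without growth.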

The subject of series [1] is Pseudomonas cepacia GN 11164. The series is described as above. Type of series: cell-based. Conditions: Burkholderia cepacia, GN11164, cephalosporinase producing strain, SDA, 18 to 20 hours, read-out: MIC. Put shortly:
as §1

Series [2] deals with Providencia rettgeri GN 4430. The series is described as above. Format: cell-based. Conditions: GN4430, cephalosporinase producing strain, SDA, 18 to 20 hours, read-out: MIC. Put shortly: as §1
A further series concerns Proteus morganii GN 5307. The series is described as above. Type of series: cell-based. Conditions: cephalosporinase producing strain, SDA, 18 to 20 hours. Put shortly:
as §1

Another series relates to Escherichia coli No. 96. The series is described as above. Format: cell-based. Conditions: cephalosporinase producing strain, SDA, 18 to 20 hours, read-out: MIC. Put shortly: as §1
The test system of a further series is Proteus vulgaris GN 76. The description is as above. Type of series: cell-based. Conditions: Proteus vulgaris, GN76, Proteus vulgaris GN 76; cephalosporinase producing strain, SDA, 18 to 20 hours; read-out: MIC. Put shortly:
as §1

Series [3] has as its system Providencia rettgeri GN 4762. Described as above. Format: cell-based. Conditions: Providencia rettgeri, GN4762, Providencia rettgeri GN 4762; cephalosporinase producing strain, SDA, 18 to 20 hours; read-out: MIC. Put shortly:
as §1

The subject of series [4] is Providencia rettgeri GN 5284. The series is described as above. Conditions: GN5284, cephalosporinase producing strain, SDA, 18 to 20 hours, read-out: MIC. Format: cell-based. Put shortly: as §1
The next series deals with Proteus vulgaris GN 4413. Described as above. Conditions: Proteus vulgaris. Format: cell-based. Put shortly:
as §1

The next series deals with Proteus vulgaris GN 7919. Described as above. Type of series: cell-based. Conditions: cephalosporinase producing strain, SDA, 18 to 20 hours. Put shortly: as §1
For series [5], the system named is P. aeruginosa resistant strains. Put plainly: Sensitivity test against clinical isolates, agar plate dilution method. Format: cell-based. Conditions: 54 strains of P. aeruginosa having an anti-Pseudomonas resistance. How it is done:
The test procedures were based on the agar plate dilution method in accordance with the standard method of The Japanese Chemotherapy Society. The minimum inhibitory concentration (MIC) was determined in substantially the same manner as the test procedures II above using the 54 strains of P. aeruginosa having an anti-Pseudomonas resistance.

The target of series [6] is T1, Swine Kidney Dehydropeptidase-I (DHP-I) (Sus scrofa, UniProt P22412).
T1 construct: made soluble by treatment with butanol and purified by the ammonium sulfate fraction method, thereby producing DHP-I enzyme from a 75% ammonium sulfate fraction; from tissue; host or cells: swine kidney
Put plainly: Stability of test compounds against DHP-I by HPLC. Conditions: 37°C, Substrate Concentration: 100 μM. Format: in vitro ADME. As for the experimental part: The swine kidney (8 kg) was homogenized and the enzyme protein was allowed to precipitate. After a connective lipid was removed with acetone, the resultant material was made soluble by treatment with butanol and purified by the ammonium sulfate fraction method, thereby producing DHP-I enzyme from a 75% ammonium sulfate fraction. The DHP-I enzyme was then adjusted to give an enzyme concentration of 25 mg/10 ml (phosphate buffer, pH 7.1), and divided into 1 ml portions. The portions were frozen and stored at -40°C or less until use. Crystalline compound (20) obtained in Example 11 and amorphous compound (14) obtained in Example 5 below were used as a test compound. The test compound was adjusted in situ to give a concentration of 117 µM with a 50 mM sodium phosphate buffer solution (pH =7.1). Glycyl dehydrophenylalanine (Gl-dh-Ph) and imipenem were employed as control compounds, and they were adjusted in situ each to give a concentration of 117 µM with the same sodium phosphate buffer solution. The test compound according to the present invention and the control compounds were treated in substantially the same manner as (1) above. The incubation, however, was conducted at 37°C for 4.5 hours or for 24 hours. The degree of hydrolysis of the compounds each after the test periods was measured by the HPLC method.

Values after ≈ are worked out from the molar mass of the structure shown. Read-outs that look alike come from different tables or passages of the source.

T1 sequence (P22412 17-384): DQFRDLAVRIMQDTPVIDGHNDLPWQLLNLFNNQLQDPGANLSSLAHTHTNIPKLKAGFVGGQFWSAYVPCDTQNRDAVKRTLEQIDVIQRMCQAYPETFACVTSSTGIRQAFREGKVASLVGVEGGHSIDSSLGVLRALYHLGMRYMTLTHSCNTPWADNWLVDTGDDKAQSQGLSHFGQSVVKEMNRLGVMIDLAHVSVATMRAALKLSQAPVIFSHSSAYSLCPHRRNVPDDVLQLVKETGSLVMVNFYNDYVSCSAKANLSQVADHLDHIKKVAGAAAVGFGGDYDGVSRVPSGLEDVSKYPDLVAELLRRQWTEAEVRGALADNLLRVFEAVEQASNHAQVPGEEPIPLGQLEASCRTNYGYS

One may read the MIC as the lowest concentration found to suppress growth. For `C[C@@H](O)[C@H]1C(=O)N2C(C(=O)[O-])=C(SCc3cs[n+](C)n3)[C@H](C)[C@H]12` [Amorphous Compd. (14), (1R,5S,6S)-2-[(2-methyl-1,2,3-thiadiazolium-4-yl)methyl]thio-6-[(R)-1-hydroxyethyl]-1-methyl-carbapenem-3-carboxylate], the MIC in the series with Serratia marcescens L-65 turned out to be 0.78 µg/mL (≈ 2.19 µM); in series [1], 0.39 µg/mL (≈ 1.1 µM); in [2], 0.39 µg/mL (≈ 1.1 µM); in the series with Proteus morganii GN 5307 (Proteus morganii GN 5307) it was 3.13 µg/mL (≈ 8.81 µM); in the series with Escherichia coli No. 96, 0.05 µg/mL (≈ 0.141 µM); in the series on Proteus vulgaris GN 76, 6.25 µg/mL (≈ 17.6 µM). In addition, the MIC in [3] was 0.39 µg/mL (≈ 1.1 µM); in series [4] it was 0.39 µg/mL (≈ 1.1 µM); with Proteus vulgaris GN 4413 (GN4413, Proteus vulgaris GN 4413, cephalosporinase producing strain, SDA, 18 to 20 hours, read-out: MIC), 6.25 µg/mL (≈ 17.6 µM); in the series on Proteus vulgaris GN 7919 (Proteus vulgaris GN 7919) it was 6.25 µg/mL (≈ 17.6 µM).
Consider `C[C@@H](O)[C@H]1C(=O)N2C(C(=O)O)=C(SCCN=CN)C[C@H]12` [Imipenem, imipenem], for which the “concentration to inhibit the growth of all the test microorganisms” value in series [5] was found to be 12.5 µg/mL. Moreover, the percent of strains inhibited at 6.25 µg/mL in series [5] (concentration of 6.25 µg/ml, read-out: test microorganisms whose growth is inhibited) was approximately 98%. In addition, the minimum inhibitory concentration (MIC) was determined as 0.39 µg/mL (≈ 1.3 µM) with Serratia marcescens L-65; 3.13 µg/mL (≈ 10.5 µM) in series [1]; 0.39 µg/mL (≈ 1.3 µM) in [2]; 0.78 µg/mL (≈ 2.61 µM) with Proteus morganii GN 5307 (Morganella morganii, GN5307, Proteus morganii GN 5307, read-out: MIC); 0.1 µg/mL (≈ 0.334 µM) in the series with Escherichia coli No. 96; 3.13 µg/mL (≈ 10.5 µM) in the series on Proteus vulgaris GN 76. For the same compound, the minimum inhibitory concentration (MIC) in [3] worked out at 0.39 µg/mL (≈ 1.3 µM); in series [4], 0.39 µg/mL (≈ 1.3 µM); in the series on Proteus vulgaris GN 4413 (GN4413), 6.25 µg/mL (≈ 20.9 µM); in the series with Proteus vulgaris GN 7919 (Proteus vulgaris, GN7919, Proteus vulgaris GN 7919, read-out: MIC), 0.39 µg/mL (≈ 1.3 µM). Also, the “DEGREES OF HYDROLYSIS BY DHP-I” value was 77.6 µM in series [6] (4.5 hours); “* After 24 hours at 37°C, it has been found that most or all imipenem has been decomposed and nothing remained was detected” in [6] (24 hours).

(Values after patent EP0326640B1, “(1R,5S,6S)-2-substituted thio-6 (R)-1-hydroxyethyl -1-methyl-carbapenem - carboxylic acid derivatives” (LEDERLE (JAPAN) LTD., priority 1987, dated 1989).)
